One compound from publication PMC9325670, “Limited nutrient availability in the tumor microenvironment renders pancreatic tumors sensitive to allosteric IDH1 inhibitors” (Nature Cancer, 2022) can be followed below.

The target in the assay is T1, wild-type isocitrate dehydrogenase 1 (wtIDH1) (Homo sapiens, UniProt O75874).
T1 construct: gene IDH1; human recombinant IDH1
Nature of the assay: cell-free fluorometric NADPH formation assay at […] Mg2+. Type of assay: biochemical.

T1 sequence (O75874 2-414): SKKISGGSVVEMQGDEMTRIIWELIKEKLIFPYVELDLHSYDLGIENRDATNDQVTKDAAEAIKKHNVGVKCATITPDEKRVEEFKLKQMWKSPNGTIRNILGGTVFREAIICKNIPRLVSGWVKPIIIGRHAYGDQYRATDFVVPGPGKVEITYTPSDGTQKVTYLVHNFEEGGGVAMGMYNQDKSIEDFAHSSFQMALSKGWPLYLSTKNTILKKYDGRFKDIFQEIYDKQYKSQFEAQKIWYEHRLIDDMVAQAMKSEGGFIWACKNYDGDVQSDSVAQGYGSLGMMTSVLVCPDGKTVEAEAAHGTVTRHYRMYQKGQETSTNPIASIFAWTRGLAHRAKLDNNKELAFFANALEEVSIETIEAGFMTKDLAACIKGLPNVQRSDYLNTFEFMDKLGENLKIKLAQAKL

Broadly, the IC50 is the concentration needed to halve the response being measured. Read a low IC50 as greater potency. On to `CC1(C)CN(C(=O)c2cn[nH]c2)Cc2c(C(=O)Nc3ccc(F)cc3)nn(Cc3ccc(C(F)(F)F)cc3)c21` [FSM-3-002], for which the 50% inhibitory concentration (IC50) stood at 0.0914 µM.
